Assay results: patent US10517926B2, “Oligopeptide having proinflammatory cytokine secretion-inhibiting activity” (Osaka University, priority 2015, dated 2019)

How the values were obtained:
[1] = tested on: MG6 cells; assay: Proinflammatory cytokine secretion inhibition, LPS-stimulated microglial cells (ELISA); format: cell-based, mouse; conditions: for proinflammatory cytokine secretion-inhibiting activity on the MG6 cells: same test as Example 2
Method: MG6 cells (mouse-derived microglial cell line) were cultured in a DMEM medium (+4% FBS) containing MHP1 or MHP2 (final concentration: 50 or 100 μg/ml), and LPS (final concentration: 2 ng/ml) for 24 hours by a standard method. After culture, the concentrations of IL-6 and TNFα in the medium were measured by the ELISA method. In the Examples of the present application, the ELISA method was performed using a kit (Quantikine ELISA Mouse TNF-α or Quantikine ELISA Mouse IL-6, produced by R&D Systems). The results are shown in FIG. 1 (IL-6) and FIG. 2 (TNFα).
The proinflammatory cytokine secretion-inhibiting effect was examined in the same as in Example 2, except that the final concentration of MHP1 was set to 100 μg/ml, and that RANKL full-length protein was used at a final concentration of 10 ng/ml or 100 ng/ml as the comparison target.

[2] = tested on: LPS-administered mice (Balb/c); assay: Septicemia model, LPS intraperitoneal, survival; format: in vivo, mouse; conditions: LPS 10 mg/kg + MHP2 5 mg/kg or 10 mg/kg i.p.; LPS only: 2 of 3 died; FIG. 17
Method: To wild-type mice (Balb/c, 5-week-old female mice), LPS (10 mg/kg) was intraperitoneally administered, or LPS (10 mg/kg) and MHP-2 (5 mg/kg or 10 mg/kg) were intraperitoneally administered. After administration, the survival rate of the mice was measured.

[3] = tested on: osteoclast precursor cells; assay: Osteoclast differentiation, Osteoclast Culture Kit (TRAP and nuclear staining); format: cell-based; conditions: with M-CSF 50 ng/ml; MHP1 30, 50 or 100 μg/ml or RANKL protein 50 ng/ml; FIG. 13
Method: Osteoclast Culture Kit V-2 (OSC33, produced by Cosmo Bio Co., Ltd.) was used. According to the manual of the kit, culture of osteoclast precursor cells was started in the presence of M-CSF (final concentration: 50 ng/ml) in the A and B groups, and in the presence of M-CSF (final concentration: 50 ng/ml) and MHP1 (final concentration: 30, 50, or 100 μg/ml) in the C and D groups. Thereafter, 24 hours to 7 days after the start of culture, the A group was cultured in the presence of M-CSF (final concentration: 50 ng/ml), the B group was cultured in the presence of M-CSF (final concentration: 50 ng/ml) and RANKL protein (final concentration: 50 ng/ml), the C group was cultured in the presence of M-CSF (final concentration: 50 ng/ml) and MHP1 (final concentration: 30, 50, or 100 μg/ml), and the D group was cultured in the presence of M-CSF (final concentration: 50 ng/ml), RANKL protein (final concentration: 50 ng/ml), and MHP1 (final concentration: 30, 50, or 100 μg/ml). After culture, the cells were subjected to TRAP staining and nuclear staining according to a standard method.

[4] = tested on: THP1 cells; assay: Proinflammatory cytokine secretion inhibition, human macrophage cells; format: cell-based; conditions: MHP6 10-100 μg/ml or MHP1 100 μg/ml, LPS 2 ng/ml, 24 hours, FIG. 14
Method: THP1 cells (human-derived macrophage cell line) were cultured in a DMEM medium (+4% FBS) containing MHP6 (human-derived; final concentration: 10, 30, 50, or 100 μg/ml) or MHP1 (mouse-derived; final concentration: 100 μg/ml), and LPS (final concentration: 2 ng/ml) for 24 hours by a standard method. After culture, the concentration of IL-6 in the medium was measured by the ELISA method.

## LMVYVVKTSIKIPSSHNLMKGGSTKN (listed as Mus musculus) [MHP13]
[1]
  proinflammatory cytokine secretion-inhibiting activity on the MG6 cells: showed proinflammatory cytokine secretion-inhibiting activity

## LMVYVVKTSIKIPSSHNLMKGGS (listed as Mus musculus) [MHP12]
[1]
  proinflammatory cytokine secretion-inhibiting activity on the MG6 cells: showed proinflammatory cytokine secretion-inhibiting activity

## DYLQLMVYVVKTSIKIPSSHNLMKGGSTKN (listed as Mus musculus) [MHP2]
[1]; MG6 cells, peptide 50 or 100 μg/ml, LPS 2 ng/ml, 24 hours, FIG. 1
  increase in the amount of IL-6 secretion by LPS: suppressed
[1]; MG6 cells, peptide 50 or 100 μg/ml, LPS 2 ng/ml, 24 hours, FIG. 2
  increase in the amount of TNFα secretion by LPS: suppressed
[2]
  mice that died: no mouse

## LMVYVVKTSIKIPSS (listed as Mus musculus) [MHP4]
[1]
  proinflammatory cytokine secretion-inhibiting activity on the MG6 cells: showed proinflammatory cytokine secretion-inhibiting activity

## RANKL: RANKL protein (Recombinant Murin sRANKL Ligand (Cat No. 315-11): produced by Peprotech) (LMVYVVKTSIKIPSSHNLMKGGSTKNWSGN) [reference compound]
[3]
  differentiation of osteoclasts by the substance itself: promoted

## HETSGSVPADYLQLMVYVVKTSIKIPSS (listed as Mus musculus) [MHP3]
[1]
  proinflammatory cytokine secretion-inhibiting activity on the MG6 cells: did not show proinflammatory cytokine secretion-inhibiting activity

## LMVYVTKTSIKIPSSHTLMKGGSTKYWSGN (listed as Homo sapiens) [MHP6]
[4]
  proinflammatory cytokine (IL-6) secretion-inhibiting activity on human-derived macrophage cells: exhibited proinflammatory cytokine secretion-inhibiting activity

## LMVYVVKTSIK (listed as Mus musculus) [MHP17]
[1]
  proinflammatory cytokine secretion-inhibiting activity on the MG6 cells: showed proinflammatory cytokine secretion-inhibiting activity

## LMVYVVKTSIKIPSSHNLMKGG (listed as Mus musculus) [MHP5]
[1]
  proinflammatory cytokine secretion-inhibiting activity on the MG6 cells: showed proinflammatory cytokine secretion-inhibiting activity
